Experimental data taken from the NIST ThermoML archive (doi:10.1016/j.jct.2004.07.015).
± gives the expanded uncertainty stated by the source.

Tests used:
[1] = xn = mol fraction of the nth substance listed; settings: 101.3 kPa, Liquid
[2] = 101.33 kPa, Liquid

C1COCO1 [1,3-dioxolane] + CC(C)CO
[1]
Settings	mass density, 298.15 K [kg/m3]	mass density, 313.15 K [kg/m3]	speed of sound, 298.15 K [m/s]	speed of sound, 313.15 K [m/s]
x1 = 0.0434	–	793.86 ± 0.31	–	1140.5 ± 1.3
x1 = 0.0675	810.83 ± 0.3	–	1193.2 ± 1.3	–
x1 = 0.0922	–	802.94 ± 0.31	–	1143.6 ± 1.3
x1 = 0.0932	815.89 ± 0.31	–	1195.3 ± 1.4	–
x1 = 0.1938	–	822.73 ± 0.32	–	1151.2 ± 1.3
x1 = 0.2005	837.99 ± 0.32	–	1205.1 ± 1.4	–
x1 = 0.2946	858.48 ± 0.33	843.76 ± 0.33	1214.8 ± 1.4	1159.9 ± 1.4
x1 = 0.395	881.68 ± 0.35	–	1226.7 ± 1.4	–
x1 = 0.3984	–	866.86 ± 0.35	–	1170.5 ± 1.4
x1 = 0.5044	–	892.29 ± 0.37	–	1182.9 ± 1.4
x1 = 0.5062	908.95 ± 0.37	–	1241.8 ± 1.5	–
x1 = 0.6042	–	917.95 ± 0.39	–	1196.4 ± 1.5
x1 = 0.6065	935.18 ± 0.4	–	1258.1 ± 1.5	–
x1 = 0.6962	–	943.18 ± 0.42	–	1211.4 ± 1.5
x1 = 0.6977	960.69 ± 0.42	–	1274.3 ± 1.6	–
x1 = 0.7995	991.23 ± 0.46	–	1295.4 ± 1.6	–
x1 = 0.8009	–	974.09 ± 0.45	–	1230.6 ± 1.6
x1 = 0.8928	–	1003.34 ± 0.49	–	1249.5 ± 1.6
x1 = 0.8957	1022.45 ± 0.5	–	1316.5 ± 1.6	–
x1 = 0.9439	–	1020.41 ± 0.51	–	1260.2 ± 1.6
x1 = 0.9451	1039.33 ± 0.52	–	1327.6 ± 1.7	–

CC(C)(C)O [2-methylpropan-2-ol]
[2]
Settings	mass density [kg/m3]	speed of sound [m/s]
298.15 K	780.86 ± 0.51	1122.8 ± 1.3
313.15 K	765.16 ± 0.54	1057.4 ± 1.2

CC(C)CO [2-methyl-1-propanol]
[2]
Settings	mass density [kg/m3]	speed of sound [m/s]
298.15 K	797.83 ± 0.49	1188.5 ± 1.3
313.15 K	785.96 ± 0.51	1138.4 ± 1.3

C1COCCO1 [1,4-dioxane] + CC(C)(C)O
[1]
Settings	mass density, 298.15 K [kg/m3]	mass density, 313.15 K [kg/m3]	speed of sound, 298.15 K [m/s]	speed of sound, 313.15 K [m/s]
x1 = 0.0502	791.11 ± 0.3	–	1133.5 ± 1.3	–
x1 = 0.0525	–	776.05 ± 0.3	–	1069.8 ± 1.2
x1 = 0.0802	797.29 ± 0.29	–	1139.5 ± 1.3	–
x1 = 0.0886	–	783.75 ± 0.3	–	1078.1 ± 1.2
x1 = 0.2051	–	808.89 ± 0.27	–	1102.3 ± 1.2
x1 = 0.2164	826.41 ± 0.26	–	1166.2 ± 1.3	–
x1 = 0.287	–	827.2 ± 0.26	–	1118.9 ± 1.2
x1 = 0.2915	843.19 ± 0.25	–	1180.4 ± 1.3	–
x1 = 0.3926	–	851.46 ± 0.23	–	1139.9 ± 1.2
x1 = 0.3944	867.16 ± 0.22	–	1201.4 ± 1.3	–
x1 = 0.4938	–	875.49 ± 0.21	–	1160.8 ± 1.2
x1 = 0.496	891.65 ± 0.2	–	1222.4 ± 1.3	–
x1 = 0.592	–	899.61 ± 0.19	–	1181.6 ± 1.3
x1 = 0.5929	915.92 ± 0.18	–	1243.8 ± 1.3	–
x1 = 0.6814	938.8 ± 0.16	–	1264.1 ± 1.3	–
x1 = 0.6904	–	924.78 ± 0.16	–	1202.7 ± 1.3
x1 = 0.7994	–	953.91 ± 0.14	–	1227.9 ± 1.3
x1 = 0.8029	971.23 ± 0.12	–	1293.2 ± 1.3	–
x1 = 0.8871	–	978.21 ± 0.11	–	1250.3 ± 1.3
x1 = 0.8893	995.28 ± 0.1	–	1315.3 ± 1.3	–
x1 = 0.9287	1006.7 ± 0.1	–	1325.5 ± 1.3	–
x1 = 0.9421	–	993.91 ± 0.1	–	1264.2 ± 1.3

CC(C)CO [2-methyl-1-propanol] + C1COCCO1
[1]
Settings	mass density, 298.15 K [kg/m3]	mass density, 313.15 K [kg/m3]	speed of sound, 298.15 K [m/s]	speed of sound, 313.15 K [m/s]
x2 = 0.0559	809.27 ± 0.29	–	1196.2 ± 1.3	–
x2 = 0.0612	–	798.12 ± 0.29	–	1146 ± 1.3
x2 = 0.0898	–	803.92 ± 0.29	–	1149.5 ± 1.3
x2 = 0.0943	817.3 ± 0.28	–	1201.4 ± 1.3	–
x2 = 0.1946	–	825.35 ± 0.27	–	1162.3 ± 1.3
x2 = 0.1959	838.82 ± 0.26	–	1215.5 ± 1.3	–
x2 = 0.2981	860.89 ± 0.24	–	1229.7 ± 1.3	–
x2 = 0.3039	–	848.25 ± 0.24	–	1176.2 ± 1.3
x2 = 0.4033	–	869.73 ± 0.22	–	1189.2 ± 1.3
x2 = 0.4039	884.22 ± 0.22	–	1245.1 ± 1.3	–
x2 = 0.5062	907.2 ± 0.19	–	1260.6 ± 1.3	–
x2 = 0.5086	–	892.99 ± 0.2	–	1203.6 ± 1.3
x2 = 0.5674	–	906.3 ± 0.19	–	1211.8 ± 1.3
x2 = 0.603	929.49 ± 0.17	–	1276.1 ± 1.3	–
x2 = 0.7018	–	937.3 ± 0.15	–	1232 ± 1.3
x2 = 0.7021	952.9 ± 0.15	–	1292.4 ± 1.3	–
x2 = 0.7966	976 ± 0.12	–	1308.7 ± 1.3	–
x2 = 0.8296	–	967.84 ± 0.12	–	1251.9 ± 1.3
x2 = 0.8879	–	982.25 ± 0.11	–	1261 ± 1.3
x2 = 0.8943	1000.57 ± 0.1	–	1326 ± 1.3	–
x2 = 0.9298	–	992.74 ± 0.1	–	1267.7 ± 1.3
x2 = 0.9328	1010.53 ± 0.1	–	1333 ± 1.4	–

C1COCCO1 [1,4-dioxane]
[2]
Settings	mass density [kg/m3]	speed of sound [m/s]
298.15 K	1027.96 ± 0.18	1344.8 ± 1.4
313.15 K	1010.8 ± 0.15	1279.8 ± 1.3

C1COCO1 [1,3-dioxolane] + CC(C)(C)O
[1]
Settings	mass density, 298.15 K [kg/m3]	mass density, 313.15 K [kg/m3]	speed of sound, 298.15 K [m/s]	speed of sound, 313.15 K [m/s]
x1 = 0.0495	789.79 ± 0.31	–	1129.2 ± 1.3	–
x1 = 0.0567	–	775.49 ± 0.32	–	1065.2 ± 1.3
x1 = 0.0949	–	782.77 ± 0.32	–	1071.1 ± 1.3
x1 = 0.0965	798.83 ± 0.31	–	1135.6 ± 1.3	–
x1 = 0.1973	–	803.78 ± 0.33	–	1087.4 ± 1.3
x1 = 0.1996	820.33 ± 0.32	–	1151 ± 1.3	–
x1 = 0.2909	840.96 ± 0.33	–	1165.8 ± 1.4	–
x1 = 0.2919	–	824.8 ± 0.34	–	1103.5 ± 1.3
x1 = 0.4039	–	851.81 ± 0.35	–	1123.4 ± 1.4
x1 = 0.4049	868.7 ± 0.35	–	1186.2 ± 1.4	–
x1 = 0.4951	–	875.4 ± 0.37	–	1141.2 ± 1.4
x1 = 0.4972	892.83 ± 0.37	–	1204.9 ± 1.5	–
x1 = 0.5948	–	903.12 ± 0.39	–	1162.4 ± 1.5
x1 = 0.5974	920.82 ± 0.39	–	1226.8 ± 1.5	–
x1 = 0.6997	–	934.45 ± 0.42	–	1187.1 ± 1.5
x1 = 0.7033	952.73 ± 0.42	–	1252.5 ± 1.5	–
x1 = 0.8031	–	967.86 ± 0.45	–	1213.5 ± 1.5
x1 = 0.8033	985.46 ± 0.46	–	1279.3 ± 1.6	–
x1 = 0.8944	1017.75 ± 0.49	–	1305.9 ± 1.6	–
x1 = 0.8959	–	1000.17 ± 0.49	–	1239.6 ± 1.6
x1 = 0.9439	1036.49 ± 0.52	–	1321.3 ± 1.7	–
x1 = 0.9464	–	1018.99 ± 0.51	–	1254.3 ± 1.6

C1COCO1 [1,3-dioxolane]
[2]
Settings	mass density [kg/m3]	speed of sound [m/s]
298.15 K	1058.98 ± 0.58	1340.2 ± 1.7
313.15 K	1040 ± 0.56	1270.9 ± 1.6
